Experimental findings from US12240854B2, “TRAF 6 inhibitors” (Helmholtz Zentrum München - Deutsches Forschungszentrum für …, priority 2018, dated 2025) are described below.

For experiment [1], the target named is T1, TRAF6-Ubc13 binding in HEK293T cells (Homo sapiens, UniProt Q9Y4K3).
T1 construct: RING-Zincfinger1 (RZ1) domain (residues 50-159) of human TRAF6 wildtype; expressed in transfected cells; host or cells: HEK 293T
T1 sequence (Q9Y4K3 50-159): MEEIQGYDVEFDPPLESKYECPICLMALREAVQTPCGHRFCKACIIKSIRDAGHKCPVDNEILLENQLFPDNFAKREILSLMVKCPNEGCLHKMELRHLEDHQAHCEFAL
Briefly: Co-immunoprecipitation of HA-TRAF6 and Ubc13 in HEK 293T cells. It counts as cell-based. The method, then:
To study the interaction of TRAF6 and Ubc13 in cells, 1×10^6 293T cells were seeded and after 18 hours cells were transfected with 1 μg pEF-HA empty or pEF-HA-TRAF6 RZ1 plasmid using the X-tremeGENE HP DNA transfection reagent (Roche). 6 hours upon transfection, cells were treated with compound or DMSO. After 42 hours further incubation, cells were harvested in Co-IP lysis buffer and HA-TRAF6 was immunoprecipitated with anti-HA affinity matrix (Roche). Binding of Ubc13 to TRAF6 was examined in Western Blot analysis.

In experiment [2] the target is T2, TRAF6WTStrepII-Ubc13FH interaction (Homo sapiens, UniProt Q9Y4K3).
T2 construct: RING-Zincfinger1 (RZ1) domain (residues 50-159) of human TRAF6 wildtype; made in house; host or cells: E. coli BL21 codon plus RIPL
T2 sequence (Q9Y4K3 with tags, fused parts or gaps): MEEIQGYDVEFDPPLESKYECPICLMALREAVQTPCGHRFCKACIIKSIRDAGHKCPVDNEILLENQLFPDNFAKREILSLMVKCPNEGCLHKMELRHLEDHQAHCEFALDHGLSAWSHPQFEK
The experiment is described as follows: ALPHAScreen TRAF6-Ubc13 interaction assay. It counts as binding. The text has this: In order to identify small molecules that specifically target the RZ1 domain of TRAF6 and thereby prevent its binding to Ubc13, the ALPHAScreen technology (PerkinElmer) was chosen to detect TRAF6WTStrepII-Ubc13FH interaction in High-Throughput-Screenings as well as Structure Activity Relationship (SAR) analysis.
For performance of an automated ALPHAScreen assay, all following components were pre-diluted in ALPHAScreen buffer (1×PBS, 0.5% BSA, 0.01% Tween-20). First, the TRAF6 protein (end concentration 100 nM, 30 μL volume) was added to 384-well-opti-plates involving the MultiFlo dispensing system (BioTek) followed by transfer of the compounds via the Sciclone G3 transfer station (PerkinElmer). After addition of Ubc13FH (end concentration 75 nM, 10 μL volume) with the MultiFlo system and incubation for one hour at room temperature, both beads (Strep-Tactin Alpha Donor beads and Nickel-Chelate acceptor beads; end concentrations 4 μg each, 10 μL volume each) were mixed and added using the MultiFlo system in subdued light. Read-out of the plates occurred after another hour of incubation at room temperature. Statistical parameters including the coefficient of variation, Z′ factor and signal window were calculated to determine the quality of the HTS campaign. To evaluate the efficacy of the compounds, ALPHAScreen units of compound-treated samples were referred to DMSO control treated samples. Thereby, the TRAF6D57K mutant served as the control for minimum signal and was included on every plate of the screening. Compounds that inhibited TRAF6WTStrepII-Ubc13FH by more than 25% were considered as actives. After elimination of ALPHAScreen frequent hitter compounds and His-tag frequent hitters (Schorpp, K., I. Rothenaigner, E. Salmina, et al., Identification of Small-Molecule Frequent Hitters from AlphaScreen High-Throughput Screens. J Biomol Screen, 2014. 19(5): p. 715-26), 178 compounds were defined as primary hits and were subsequently tested in five-point serial dilution assays (2.5-40 μM) in TRAF6WTStrepII-Ubc13FH ALPHAScreen experiments. Only compounds with dose-dependent effects on TRAF6WTStrepII-Ubc13FH (n=27) were taken for further research. For analog testing, all compounds were analyzed in ten-point titration (0.2-100 μM) in TRAF6WTStrepII-Ubc13FH ALPHAScreen experiments. In parallel, the compounds were tested in the ALPHAScreen TruHits Kit (PerkinElmer) to rule out unspecific interference with the ALPHAScreen technology.
Background: In Alpha technology, singlet oxygen from a donor bead excites a nearby acceptor bead.

Structures are written as SMILES. “Also recorded” adds a separate entry of the source. Read-outs that look alike come from different tables or passages of the source.

Turning to `Cc1nn(-c2ccc3nnc(C)n3n2)c(C)c1CCC(=O)N1CCN(Cc2ccccc2)CC1` [HZM06-1, 1-(4-benzylpiperazin-1-yl)-3-(3,5-dimethyl-1-(3-methyl-[1,2,4]triazolo[4,3-b]pyridazin-6-yl)-1H-pyrazol-4-yl)propan-1-one], the “interaction of endogenous Ubc13 with HA-tagged TRAF6 (co-immunoprecipitation)” value (“interaction of endogenous Ubc13” below) in experiment [1] is given as “also active in cells”.

Take `COc1cccc(CN2CCN(C(=O)CCc3c(C)nn(-c4ccc5nnc(C)n5n4)c3C)CC2)c1` [HZM06-2, 1-(4-(3-methoxybenzyl)piperazin-1-yl)-3-(3,5-dimethyl-1-(3-methyl-[1,2,4]triazolo[4,3-b]pyridazin-6-yl)-1H-pyrazol-4-yl)propan-1-one]: in experiment [1], the “interaction of endogenous Ubc13” value is on record as “also active in cells”.

`Cc1nn(-c2ccc3nnc(C)n3n2)c(C)c1CCC(=O)N1CCN(Cc2ccc(F)cc2)CC1` [HZM06-3, 1-(4-(4-fluorobenzyl)piperazin-1-yl)-3-(3,5-dimethyl-1-(3-methyl-[1,2,4]triazolo[4,3-b]pyridazin-6-yl)-1H-pyrazol-4-yl)propan-1-one]: in experiment [1], the “interaction of endogenous Ubc13” value was “also active in cells”.

`Cc1nn(-c2ccc3nnc(C)n3n2)c(C)c1CCC(=O)N1CCC(Cc2ccccc2)C1` (centres unmarked) [HZM06-4, 1-(3-benzylpyrrolidin-1-yl)-3-(3,5-dimethyl-1-(3-methyl-[1,2,4]triazolo[4,3-b]pyridazin-6-yl)-1H-pyrazol-4-yl)propan-1-one]: in experiment [2], the “inhibition of TRAF6-Ubc13 interaction in ALPHAScreen (in words)” value was “most prominent effect”. Also, the entries for the “interaction of endogenous Ubc13” value in experiment [1] and in experiment [1] (listed as HZM06-04) were “also active in cells; also recorded: most active analogs” and “demonstrated inhibition of TRAF6-Ubc13 binding”, respectively.

Consider `Cc1nn(-c2ccc3nnc(C)n3n2)c(C)c1CCC(=O)N1CCC(c2ccccc2)CC1` [HZM06-6, 3-(3,5-dimethyl-1-(3-methyl-[1,2,4]triazolo[4,3-b]pyridazin-6-yl)-1H-pyrazol-4-yl)-1-(4-phenylpiperidin-1-yl)propan-1-one], for which, in experiment [1], the “interaction of endogenous Ubc13” value is “also active in cells”.

On to `Cc1nn(-c2ccc3nnc(C)n3n2)c(C)c1CCC(=O)N1CCC(c2ccccn2)CC1` [HZM06-7, 3-(3,5-dimethyl-1-(3-methyl-[1,2,4]triazolo[4,3-b]pyridazin-6-yl)-1H-pyrazol-4-yl)-1-(4-(pyridin-2-yl)piperidin-1-yl)propan-1-one], for which the “interaction of endogenous Ubc13” value is “also active in cells; also recorded: most active analogs” in experiment [1] and “demonstrated inhibition of TRAF6-Ubc13 binding” in experiment [1] (listed as HZM06-07).

`COc1cccc(CC2CCN(C(=O)CCc3c(C)nn(-c4ccc5nnc(C)n5n4)c3C)CC2)c1` [HZM06-8, 1-(4-(3-methoxybenzyl)piperidin-1-yl)-3-(3,5-dimethyl-1-(3-methyl-[1,2,4]triazolo[4,3-b]pyridazin-6-yl)-1H-pyrazol-4-yl)propan-1-one]: the “interaction of endogenous Ubc13” value in experiment [1] is “also active in cells; also recorded: most active analogs”; in experiment [1] (listed as HZM06-08), “demonstrated inhibition of TRAF6-Ubc13 binding”.

On to `Cc1nn(-c2ccc3nnc(C)n3n2)c(C)c1CCC(=O)N1CCC(Cc2ccc(F)cc2)CC1` [HZM06-9, 1-(4-(4-fluorobenzyl)piperidin-1-yl)-3-(3,5-dimethyl-1-(3-methyl-[1,2,4]triazolo[4,3-b]pyridazin-6-yl)-1H-pyrazol-4-yl)propan-1-one], for which the “interaction of endogenous Ubc13” value in experiment [1] is listed as “also active in cells; also recorded: most active analogs”; in experiment [1] (listed as HZM06-09), “demonstrated inhibition of TRAF6-Ubc13 binding”.

Regarding `Cc1nn(-c2ccc3nnc(C)n3n2)c(C)c1CCC(=O)N1CCC(Cc2ccccn2)CC1` [HZM06-10, 3-(3,5-dimethyl-1-(3-methyl-[1,2,4]triazolo[4,3-b]pyridazin-6-yl)-1H-pyrazol-4-yl)-1-(4-((pyridin-2-yl)methyl)piperidin-1-yl)propan-1-one], in experiment [1], the “interaction of endogenous Ubc13” value is listed as “also active in cells”.
